According to patent US20250205369A1, “DENDRIMER COMPOSITIONS AND USE IN TREATMENT OF NEUROLOGICAL AND CNS DISORDERS” (THE JOHNS HOPKINS UNIVERSITY, priority 2014, published 2025):

How the values were obtained:
[1] = test system: MeCP2-null mice; test: NAC and D-NAC therapy in MeCP2-null (RTT) mice: survival, behavior, appearance; format: in vivo; settings: MeCP2-null pups
Protocol: Detailed materials and methods used in the experiments below, including protocols for making the dendrimers-Cy5 and dendrimers-drug conjugates, have been described by Kannan S et al Sci. Transl. Med., 4:130ra46 (2012) and in U.S. Pat. No. 8,889,101.
RTT mice were the Adrian Bird model available from Jackson Laboratory.
Weight and behavior were also assessed. Cytokines were measured using standard mice primers for the assessment of inflammatory markers (Kannan S et al Sci. Transl. Med., 4:130ra46 (2012)).
Conjugation of dendrimer conjugates. The conjugation of dendrimers to Cy5 was done using previously reported methods (Kannan et al., Science Trans. Med (April 2012). For drug experiments, dendrimers were conjugated to N-acetyl-cysteine and administered at doses ranging from 2-20 mg/kg at differing time points.
The mice were injected with D-drug or PBS every 3-4 days, Statistical analysis. The data was analyzed for the reproducibility using Student's t-test to determine the significance between two groups. A p-value equal to or less than 0.05 was considered significant.
Animals were videotaped prior to treatment every 3-4 days, and mobility, gait, tremors, paw clenching, paw clenching time, paw wringing, and respiration were all scored on a scale of 0-3, where ‘0’ indicates the worst score and ‘3’ is best or normal. […]

[2] = test system: LPS-induced brain injury in a neonatal rabbit model of cerebral palsy; test: LPS-induced brain injury in neonatal rabbit model of cerebral palsy; format: in vivo
Protocol: The therapeutic efficacy of GA-PAMAM-S-S-NAC dendrimer conjugate was evaluated after two days of animal treatment with lipopolysaccharide (LPS) to induce white matter injury and hypomyelination in the developing rabbit brain (an animal model of Cerebral Palsy).

[3] = test system: microglial cells; test: GSH depletion, ROS, NO, H2O2 and nitrite in microglial cells; format: cell-based; settings: highest concentration (5 mM)
[4] = test system: plasma protein; settings: free drug; cited from earlier work

CC(=O)N[C@@H](CS)C(=O)O [NAC, N-acetyl cysteine]
Safety / toxicity from survival ([1]; twice weekly therapy): potential toxicity | Survival (Kaplan-Meier) compared to non-treated animals ([1]; twice weekly, 10 mg/kg (NAC basis) from PND21): worse survival than non-treated Rett mice | Dose eliciting identical responses ([2]; free NAC vs conjugate): 100 mg/kg | Fetal inflammation response and motor deficits compared to saline-treated kits ([2]; rabbit kits): decrease in fetal inflammation response with improvement of motor deficits | Reduction of H2O2 levels [3]: 30-40% | Reduction of nitrite levels [3]: 30-40% | Plasma protein binding [4]: very high plasma protein binding
